{
  "source": "patent US6303596A",
  "about": "“Use of taurolidine for treatment of leukemias” (priority 2000, dated 2001)",
  "type_in_all_cases": "cell-based, human",
  "key": {"HL-60 cells": {"tested_on": "HL-60 cells", "experiment": "trypan blue exclusion, HL-60", "details": "HL-60, 25 μg/ml taurolidine, versus MM6, K562, Jurkat", "description": "FIGS. 7A and 7B depict cell viability and growth rates for HL-60 cell line following taurolidine treatment, in terms of % trypan blue negative cells and % cell number, respectively. Cells were treated with various concentrations of taurolidine for 4 hours in AIM-V+0.01% BCS. After aliquots were collected for LDH assay, the remainder of the culture was rinsed in HBSS and resuspended in RPMI+10% BCS without taurolidine. Counts of trypan blue-negative cells (FIG. 7A), and total cell number (FIG. 7B), were recorded daily thereafter (with the measurement at Day 1 being made immediately after the 4 hour taurolidine treatment). […] Doubling times were determined under each condition, and expressed as a percentage of the rate of doubling of untreated cells. […]\nIn these experiments, integrity of cell membranes following taurolidine treatment was assessed by exclusion of trypan blue and by measuring the release of LDH in MM6, K-562, HL-60, and REH cells. […] A parallel aliquot of cells was lysed by three cycles of freeze/thaw and the quantity of LDH released was taken to be 100%. […]\nHL-60 cells treated with 50 μl taurolidine. In these samples, LDH present in the culture medium was 8.3±2.3% of that released by completely lysed cells, compared with 2.3±0.8% measured in control cultures. […]"}, "Monocytes": {"tested_on": "Monocytes", "experiment": "TUNEL / propidium iodide flow cytometry, monocytes in PBMC, culture medium", "description": "FIG. 14A and FIG. 14B are terminal deoxytransferase-mediated deoxyuridine-triphosphate-biotin nick end labeling assay (TUNEL) analyses of control cells and taurolidine-treated PBMC, respectively. Cells were incubated with 100 μg/ml taurolidine for six hours and processed for TUNEL analysis as given below. Parallel samples were stained with FITC-conjugated anti-CD14 and propidium iodide (PI) as described below. Ten thousand events were recorded per sample. TUNEL signal (x-axis) is a measure of DNA fragmentation, which FSC (y-axis) is related to cell size. TUNEL-negative lymphocytes are bounded by the rectangle R1, while TUNEL-negative monocytes (CD14 positive cells) are bounded by the rectangle R2. The vertical line indicates demarcation between TUNEL-negative and TUNEL-positive cells. There were minimal numbers of PI-positive cells in the six hour samples (see Table IV).\nIn the second method, DNA fragmentation was detected via TUNEL assay according to the manufacturer's instructions. With this methodology, 2×10^6 cells were fixed with 2% paraformaldehyde, permeabilized with 0.1% Triton X-100/0.1% citrate, incubated at 37° C. with terminal deoxynucleotidyl transferase and FITC-dUTP, rinsed and analyzed by flow cytometry. Enhanced FITC signal indicates apoptosis-specific DNA fragmentation. Gavriali, et al, \"Identification of programmed cell death in situ via specific labeling of nuclear DNA fragmentation,\" J Cell Biol 119:493 (1992). Parallel aliquots of unfixed cells were treated with PI and FITC-conjugated anti-CD14 and analyzed by flow cytometry, in order to identify cells with permeable cell membranes (since PI binds to DNA but is excluded from cells with intact plasma membranes) and also to determine the cell-specificity of the apoptotic signal.\nA Becton-Dickinson FACSCalibur instrument was used for flow cytometric analysis of cells. Assessment of cell diameter (forward scatter; FCS) and granularity (side scatter; SSC).was carried out on unfixed cells. Discrimination between lymphocytes and monocytes was made possible by their characteristic differences in FSC and SSC, and confirmed by staining monocytes with FITC-labeled anti-CD14 antibodies and lymphocytes with a combination of FITC-conjugated anti-CD3 and PE-conjugated anti-CD19. After incubation with taurolidine (with or without concomitant LPS treatment), cells were rinsed twice in phosphate-buffered saline containing 0.1% bovine serum albumin (PBSA) and 1×10^6 cells were resuspended in 0.1 ml PBSA. After 5 μl FITC-conjugated anti-CD14 was added, cells were incubated in the dark on ice for 15 minutes and then centrifuged at 250×g. Cells were resuspended in 500 μl PBSA containing 5 μg/ml PI and subjected to flow cytometry.\nConsequently, TUNEL analysis was performed on PBMC at 3, 6, or 24 hours after treatment with 25 to 100 μg/ml taurolidine. Aliquots of harvested cells were also labeled with FITC-conjugated anti-CD14 antibodies and PI, which allowed identification of monocytes (CD14-positive cells) and cells with damaged cell membranes (PI-positive cells). […] Thus, nearly 75% of the monocytes were TUNEL-positive following treatment with 100 μg/ml taurolidine for six hours. Confirmation that the TUNEL-positive cells were monocytes was obtained by staining with FITC-conjugated anti-CD14.\n^a Analysis by flow cytometry after staining cells with FITC-conjugated\nanti-CD14 and PI, and processing for TUNEL. Data are mean ± SD of two\n^b Percent of cells present in the TUNEL-negative region in control"}, "Jurkat cells": {"tested_on": "Jurkat cells", "experiment": "growth rate after taurolidine treatment, Jurkat", "description": "FIGS. 9A and 9B depict cell viability and growth rates for Jurkat cell line following taurolidine treatment, in terms of % trypan blue negative cells and % cell number, respectively. Cells were treated with various concentrations of taurolidine for 4 hours in AIM-V+0.01% BCS. After aliquots were collected for LDH assay, the remainder of the culture was rinsed in HBSS and resuspended in RPMI+10% BCS without taurolidine. Counts of trypan blue-negative cells (FIG. 9A), and total cell number (FIG. 9B), were recorded daily thereafter (with the measurement at Day 1 being made immediately after the 4 hour taurolidine treatment). Conditions were: no treatment (open circles); 25 μg/ml taurolidine (closed circles); 50 μg/ml taurolidine (open squares); 100 μg/ml taurolidine (closed squares); and vehicle alone (closed triangles). Doubling times were determined under each condition, and expressed as a percentage of the rate of doubling of untreated cells. These values are located to the right of the growth curves in (FIG. 9B). […]\nHL-60 cells treated with 50 μl taurolidine. In these samples, LDH present in the culture medium was 8.3±2.3% of that released by completely lysed cells, compared with 2.3±0.8% measured in control cultures. […] After 4 hour treatment, cells were rinsed and returned to growth medium and monitored for viability and growth over the following 3 days. […]"}},
  "data": [
    {"smiles": "O=S1(=O)CCN(CN2CCS(=O)(=O)NC2)CN1", "note": "[taurolidine, 4,4'-methylenebis(perhydro-1,2,4-thiadiazin 1,1-dioxide)]", "values": [
      {"measurement": "trypan blue staining after treatment, sensitivity", "setting": "HL-60 cells", "result": "more sensitive"},
      {"measurement": "TUNEL-positive (apoptotic) monocytes", "setting": "Monocytes; 100 μg/ml taurolidine, 6 h, culture medium, 360 min", "result": "approximately 75%"},
      {"measurement": "induction of apoptosis at lower doses", "setting": "Monocytes; 25 and 50 μg/ml taurolidine, versus 100 μg/ml", "result": "lower levels of induction of apoptosis"},
      {"measurement": "cytotoxicity at 100 µg/mL", "setting": "Monocytes; Homo sapiens, Monocyte, 100 μg/ml taurolidine, 6 h, culture medium, read-out: TUNEL-positive (apoptotic) monocytes", "result": "~75", "unit": "%"},
      {"measurement": "viability at 25 µg/mL", "setting": "Monocytes; Homo sapiens, Monocyte, monocytes, 25 μg/ml, 6 h, percent of control, read-out: % TUNEL-Negative", "result": "88.3 ± 2.7", "unit": "%"},
      {"measurement": "viability at 50 µg/mL", "setting": "Monocytes; Homo sapiens, Monocyte, monocytes, 50 μg/ml, 6 h, percent of control, read-out: % TUNEL-Negative", "result": "67.8 ± 18", "unit": "%"},
      {"measurement": "viability at 100 µg/mL", "setting": "Monocytes; Homo sapiens, Monocyte, monocytes, 100 μg/ml, 6 h, percent of control, read-out: % TUNEL-Negative", "result": "25.1 ± 11.8", "unit": "%"},
      {"measurement": "onset of apoptosis after treatment", "setting": "Monocytes; monocytes", "result": "detectable within four to six hours"},
      {"measurement": "sensitivity of cell growth among cell lines", "setting": "Jurkat cells", "result": "least affected"}
    ]}
  ]
}
